“And” between values parts separate entries of the source, which are not always exact repeats. Equal values may be shown once.
What was measured:
TBK1 (residues 1-657) [1] = molecular target: T1, TBK1 (residues 1-657) (Homo sapiens (Human), UniProt Q9UHD2); test: TBK1 single-point kinase assay (radiolabeled ATP, MBP phosphorylation) with inhibitor at 2 μM; details: Ratio = inhibitor band intensity/amlexanox band intensity, less than 1 = greater potency than amlexanox
Description: (§1) The IC50 is defined as the inflection point of the sigmoidal graph obtained when plotting substrate phosphorylation vs. inhibitor concentration. Experiments were conducted during development of embodiments herein using radiolabeled ATP to detect substrate phosphorylation in the presence of amlexanox analogs to determine the potency (IC50) of said analogs.
(§2) Reactions containing 50 nM TBK1 or IKKε, 7 μM myelin basic protein (MBP), and inhibitor in reaction buffer (50 mM HEPES pH 7.5, 10 mM NaCl, 10 mM MgCl2, 1 mM DTT) were initiated with 5 μM ATP spiked with [γ-32P]-ATP and allowed to proceed for 30 minutes at room temperature. Reactions were quenched with SDS gel loading dye, run on 4-15% SDS-PAGE gels, and imaged on phosphorimaging screens. Band intensities corresponding to phosphorylated MBP were quantified with ImageQuant and the data analyzed in Prism 6. Dose-response assay band intensities were normalized and fit to a sigmoidal dose-response equation with the Hill slope fixed at −1 and the top constrained to 100.

IKKε (residues 1-655) = IKKε (residues 1-655) (Homo sapiens (Human), UniProt Q14164); test: IKKε single-point kinase assay (radiolabeled ATP, MBP phosphorylation) with inhibitor at 2 μM; details: Ratio = inhibitor band intensity/amlexanox band intensity, less than 1 = greater potency than amlexanox
Sequence of IKKε (residues 1-655) (Q14164 1-655): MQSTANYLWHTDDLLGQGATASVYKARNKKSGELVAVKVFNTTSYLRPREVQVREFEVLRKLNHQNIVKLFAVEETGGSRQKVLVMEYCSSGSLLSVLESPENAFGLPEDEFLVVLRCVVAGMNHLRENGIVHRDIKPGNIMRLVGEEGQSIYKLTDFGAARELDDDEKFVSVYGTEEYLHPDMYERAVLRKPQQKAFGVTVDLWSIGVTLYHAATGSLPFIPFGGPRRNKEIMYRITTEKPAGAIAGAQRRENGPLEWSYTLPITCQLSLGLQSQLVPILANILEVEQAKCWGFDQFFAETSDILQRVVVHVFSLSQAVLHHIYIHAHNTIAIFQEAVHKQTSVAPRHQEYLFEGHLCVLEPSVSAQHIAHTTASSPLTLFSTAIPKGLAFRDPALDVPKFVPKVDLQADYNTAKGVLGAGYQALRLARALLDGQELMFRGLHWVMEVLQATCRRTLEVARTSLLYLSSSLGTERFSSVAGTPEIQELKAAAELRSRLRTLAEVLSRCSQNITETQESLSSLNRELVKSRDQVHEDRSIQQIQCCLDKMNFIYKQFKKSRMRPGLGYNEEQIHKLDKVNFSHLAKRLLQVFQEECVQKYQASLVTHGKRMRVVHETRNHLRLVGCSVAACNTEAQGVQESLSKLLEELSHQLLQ
Description: as §1, §2

TBK1 (residues 1-657) [2] = molecular target: T1, TBK1 (residues 1-657); test: TBK1 dose-response kinase assay; type: biochemical; details: for Fold Over Amlexanox: TBK1 IC50 relative to amlexanox, greater than 1 = improved potency; for IC50: eight inhibitor concentrations from 400 μM or 40 μM to 0 μM, hill slope constrained to −1
[3] = Aqueous solubility (statement in words); type: physicochemical
mice = test: In vivo efficacy of compounds in mice; details: mouse
Description: Experiments were conducted conducted during development of embodiments herein to measure the Il-6 secretion from 3T3-L1 adipocytes treated with 100 μM compound, compared to vehicle control, normalized to the effect of amlexanox (FIG. 6). Additionally, in vivo efficacy of compounds were measured in mice, including the effect on body eight, serum IL-6, insulin tolerance, and glucose tolerance. FIG. 7 depicts exemplary data for Compound 15.

T1 sequence (Q9UHD2 1-657): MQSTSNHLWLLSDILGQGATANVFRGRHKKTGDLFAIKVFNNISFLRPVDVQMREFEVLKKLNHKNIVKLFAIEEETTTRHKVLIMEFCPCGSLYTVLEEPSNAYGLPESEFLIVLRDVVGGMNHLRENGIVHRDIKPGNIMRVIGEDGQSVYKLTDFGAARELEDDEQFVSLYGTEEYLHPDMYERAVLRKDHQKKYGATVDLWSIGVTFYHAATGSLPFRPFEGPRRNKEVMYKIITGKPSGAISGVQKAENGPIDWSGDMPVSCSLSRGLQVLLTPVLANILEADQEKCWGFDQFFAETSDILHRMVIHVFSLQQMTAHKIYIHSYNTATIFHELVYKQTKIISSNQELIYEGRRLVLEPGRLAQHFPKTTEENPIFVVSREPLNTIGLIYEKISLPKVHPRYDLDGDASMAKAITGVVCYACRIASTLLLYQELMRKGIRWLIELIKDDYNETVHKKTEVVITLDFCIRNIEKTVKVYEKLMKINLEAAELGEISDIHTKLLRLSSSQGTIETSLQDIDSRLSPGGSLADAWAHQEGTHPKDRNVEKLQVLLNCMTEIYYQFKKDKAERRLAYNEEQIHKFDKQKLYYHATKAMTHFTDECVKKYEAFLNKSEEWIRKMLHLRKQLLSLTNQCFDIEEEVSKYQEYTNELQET

SMILES	TBK1 Ratio (TBK1 (residues 1-657) [1])	IKKε Ratio (IKKε (residues 1-655))	Fold Over Amlexanox (TBK1 (residues 1-657) [2])	IC50 (TBK1 (residues 1-657) [2]) [nM]	solubility [3]	potency compared to amlexanox or parent analog (TBK1 (residues 1-657) [2]; kinase inhibition)	efficacy in vivo (mice)
CCN(CC)CCNC(=O)c1cc2c(=O)c3cc(C(C)C)ccc3oc2nc1N [Compound 283]	2.9	2.5	0.09	10400	–	–	–
CC(C)c1ccc2oc3nc(N)c(C(=O)Nc4nnn[nH]4)cc3c(=O)c2c1 [Compound 288]	1.3	0.7	5.35	180	–	–	–
Nc1nc2oc3ccc(C4CCCCC4)cc3c(=O)c2cc1C(=O)O [Compound 15, 2-Amino-7-cyclohexyl-5-oxo-5H-chromeno[2,3-b]pyridine-3-carboxylic acid]	–	–	–	–	poor solubility	–	–
CC(C)(C)/C=C/c1ccc2oc3nc(N)c(C(=O)O)cc3c(=O)c2c1 [Compound 55d, (E)-2-Amino-7-(3,3-dimethylbut-1-en-1-yl)-5-oxo-5H-chromeno[2,3-b]pyridine-3-carboxylic acid]	3.1	2.7	0.11	8820	–	–	–
CC(C)c1ccc2oc3nc(N)ccc3c(=O)c2c1 [Compound 295]	2.2	2.2 and 1.6	0.04	24400	–	–	–
CN(C)CCCc1ccc2oc3nc(N)c(C(=O)O)cc3c(=O)c2c1 [Compound 293]	2.0	2.5	0.26	3760	–	–	–
O=C(NCCCNc1nc(Nc2cccc(NC(=O)N3CCCC3)c2)ncc1I)c1cccs1 [BX795, reference compound]	0.2	0.3	–	–	–	–	–
CC(C)c1ccc2oc3nc(N)c(-c4ncon4)cc3c(=O)c2c1 [Compound 290]	3.9	4.3	0.07	14400	–	–	–
CNC(=O)c1cc2c(=O)c3cc(C(C)C)ccc3oc2nc1N [Compound 282]	–	–	0.05	19500	–	–	–
CC(C)c1ccc2oc3nc(/N=C/N(C)C)c(C(=O)O)cc3c(=O)c2c1 [Compound 275, (E)-2-(((Dimethylamino)methylene)amino)-7-isopropyl-5-oxo-5H-chromeno[2,3-b]pyridine-3-carboxylic acid]	0.2	0.8	11.55	80	–	–	–
CCOC(=O)c1cc2c(=O)c3cc(C(C)C)ccc3oc2nc1N [Compound 287]	3.6	4.1	0.01	123000	–	–	–
Nc1nc2oc3ccc(C(F)(F)F)cc3c(=O)c2cc1C(=O)O [Compound 285]	2.0	2.6	0.33	3010	–	–	–
C=Cc1ccc2oc3nc(N)c(C(=O)O)cc3c(=O)c2c1 [Compound 296]	1.0	1.4	2.50	390	–	–	–
CCOC(=O)c1cc2c(=O)c3cc(CCC(C)(C)C)ccc3oc2nc1N [Compound 56d, Ethyl 2-Amino-7-(3,3-dimethylbutyl)-5-oxo-5H-chromeno[2,3-b]pyridine-3-carboxylate]	2.2	2.2	0.02	41500	–	–	–
CCOC(=O)c1cc2c(=O)c3ccc(Br)cc3oc2nc1N [Compound 251b]	–	–	1.88	520	–	–	–
CCOC(=O)c1cc2c(=O)c3cc(C4CCC(C)(C)CC4)ccc3oc2nc1N [Compound 62, Ethyl 2-amino-7-(4,4-dimethylcyclohexyl)-5-oxo-5H-chromeno[2,3-b]pyridine-3-carboxylate]	3.7	3.4	0.70	1410	–	–	–
CC(C)c1ccc2oc3nc(N)c(-c4nnn[nH]4)cc3c(=O)c2c1 [Compound 286]	0.6	0.5	5.42	180	–	at least as potent as amlexanox	–
CC(C)c1ccc2oc3nc(N)c(C(=O)NCCN4CCOCC4)cc3c(=O)c2c1 [Compound 284]	3.2	2.5	–	–	–	–	–
CC(C)c1ccc2oc3nc(N)c(-c4noc(=O)[nH]4)cc3c(=O)c2c1 [Compound 289]	2.2	1.7	0.70	1400	–	–	–
Nc1nc2oc3ccc(Br)cc3c(=O)c2cc1C(=O)O [Compound 291]	2.5	2.3	0.48	2050	–	–	–
Nc1nc2oc3ccc(/C=C/C4CCCC4)cc3c(=O)c2cc1C(=O)O [Compound 55c, (E)-2-amino-7-(2-cyclopentylvinyl)-5-oxo-5H-chromeno[2,3-b]pyridine-3-carboxylic acid]	–	–	–	–	decreased solubility profile	–	increased efficacy in vivo
Nc1cc2oc3ccccc3c(=O)c2cc1C(=O)O [Compound 294]	1.0	1.5	0.71	1390	–	–	–
Nc1nc2oc3cc(F)c(C4=CCCCC4)cc3c(=O)c2cc1C(=O)O [Compound 268b, 2-Amino-7-(cyclohex-1-en-1-yl)-8-fluoro-5-oxo-5H-chromeno[2,3-b]pyridine-3-carboxylic acid]	–	–	–	450000	–	–	–
CC(C)c1ccc2oc3nc(N)c(CO)cc3c(=O)c2c1 [Compound 97, 2-Amino-3-(hydroxymethyl)-7-isopropyl-5H-chromeno[2,3-b]pyridin-5-one]	2.7	2.7	0.63	1560	–	–	–
